Values of other authors in US20150231081A1, “DELAYED RELEASE POSACONAZOLE TABLETS” (CADILA HEALTHCARE LIMITED, priority 2014, published 2015).
Like-named read-outs stand apart in the source and are kept apart here.

solubility (environments where the pH is about pH 6.4 or more basic): less than 1 microgram/mL
solubility (in stomach pH): approximately 0.8 mg/mL
Compound: CC[C@@H]([C@H](C)O)n1ncn(-c2ccc(N3CCN(c4ccc(OC[C@@H]5CO[C@@](Cn6cncn6)(c6ccc(F)cc6F)C5)cc4)CC3)cc2)c1=O [Posaconazole free base, 4-[4-[4-[4-[[(3R,5R)-5-(2,4-difluorophenyl)tetrahydro-5-(1H-1,2,4-triazol-1-ylmethyl)-3-furanyl]methoxy]phenyl]-1-piperazinyl]phenyl]-2-[(1S,2S)-1-ethyl-2-hydroxypropyl]-2,4-dihydro-3H-1,2,4-triazol-3-one]
